US10743540B2, “3-amino-1,2,4-triazine derivatives and their use for controlling undesired plant growth” (BAYER CROPSCIENCE AKTIENGESELLSCHAFT, priority 2016, dated 2020)

Legend:
Type in all cases: in vivo
STEME: Stellaria media [1] = assay: Post-emergence herbicidal effect; settings: application rate 320 g/ha, treated at one-leaf stage, assessed visually after about 3 weeks, 100% = plants have died
Experimental: (§1) [table] 2. Post-Emergence Herbicidal Effect and Crop Plant Compatibility Seeds of monocotyledonous and dicotyledonous weed and crop plants are laid out in sandy loam soil in wood-fiber pots, covered with soil and cultivated in a greenhouse under good growth conditions. 2 to 3 weeks after sowing, the test plants are treated at the one-leaf stage. The compounds of the invention, formulated in the form of wettable powders (WP) or as emulsion concentrates (EC), are then sprayed onto the green parts of the plants as aqueous suspension or emulsion at a water application rate equating to 600 to 800 L/ha with addition of 0.2% wetting agent. After the test plants have been left to stand in the greenhouse under optimal growth conditions for about 3 weeks, the action of the preparations is assessed visually in comparison to untreated controls (herbicidal action in percent (%): 100% activity=the plants have died, 0% activity=like control plants).

VERPE: Veronica persica [2] = assay: Post-emergence herbicidal effect; settings: application rate 320 g/ha, treated at one-leaf stage, assessed visually after about 3 weeks, 100% = plants have died
Experimental: as §1

STEME: Stellaria media [3] = assay: Pre-emergence herbicidal effect; settings: application rate 320 g/ha, scored visually after 3 weeks, 100% = plants have died, 0% = like control plants
Description: (§2) 1. Pre-Emergence Herbicidal Effect and Crop Plant Compatibility Seeds of monocotyledonous and dicotyledonous weed plants and crop plants are laid out in sandy loam soil in wood-fiber pots and covered with soil. The compounds of the invention, formulated in the form of wettable powders (WP) or as emulsion concentrates (EC), are then applied to the surface of the covering soil as aqueous suspension or emulsion at a water application rate equating to 600 to 800 L/ha with addition of 0.2% wetting agent. After the treatment, the pots are placed in a greenhouse and kept under good growth conditions for the trial plants. The damage to the test plants is scored visually after a test period of 3 weeks by comparison with untreated controls (herbicidal activity in percent (%): 100% activity=the plants have died, 0% activity=like control plants). [table]

[4] = test system: MATIN: Matricaria inodora; assay: Pre-emergence herbicidal effect; settings: application rate 320 g/ha, scored visually after 3 weeks, 100% = plants have died, 0% = like control plants
Description: as §2

[5] = test system: ALOMY: Alopecurus myosuroides; assay: Pre-emergence herbicidal effect; settings: application rate 320 g/ha, scored visually after 3 weeks, 100% = plants have died, 0% = like control plants
Description: as §2

VERPE: Veronica persica [6] = assay: Pre-emergence herbicidal effect; settings: application rate 320 g/ha, scored visually after 3 weeks, 100% = plants have died, 0% = like control plants
Description: as §2

SETVI: Setaria viridis = assay: Pre-emergence herbicidal effect; settings: application rate 320 g/ha, scored visually after 3 weeks, 100% = plants have died, 0% = like control plants
Description: as §2

[7] = test system: POLCO: Polygonum convolvulus; assay: Pre-emergence herbicidal effect; settings: application rate 320 g/ha, scored visually after 3 weeks, 100% = plants have died, 0% = like control plants
Description: as §2

[8] = test system: LOLMU: Lolium multiflorum; assay: Pre-emergence herbicidal effect; settings: application rate 320 g/ha, scored visually after 3 weeks, 100% = plants have died, 0% = like control plants
Description: as §2

[9] = test system: ECHCG: Echinochloa crus-galli; assay: Pre-emergence herbicidal effect; settings: application rate 320 g/ha, scored visually after 3 weeks, 100% = plants have died, 0% = like control plants
Description: as §2

[10] = test system: AMARE: Amaranthus retroflexus; assay: Post-emergence herbicidal effect; settings: application rate 320 g/ha, treated at one-leaf stage, assessed visually after about 3 weeks, 100% = plants have died
Experimental: as §1

VIOTR: Viola tricolor = assay: Post-emergence herbicidal effect; settings: application rate 320 g/ha, treated at one-leaf stage, assessed visually after about 3 weeks, 100% = plants have died
Experimental: as §1

| SMILES | Herbicidal activity with respect to [%] STEME (STEME: Stellaria media [1]) | Herbicidal activity with respect to [%] VERPE (VERPE: Veronica persica [2]) | Herbicidal activity with respect to [%] STEME (STEME: Stellaria media [3]) | Herbicidal activity with respect to [%] MATIN [4] | Herbicidal activity with respect to [%] ALOMY [5] | Herbicidal activity with respect to [%] VERPE (VERPE: Veronica persica [6]) | Herbicidal activity with respect to [%] SETVI (SETVI: Setaria viridis) | Herbicidal activity with respect to [%] POLCO [7] | Herbicidal activity with respect to [%] LOLMU [8] | Herbicidal activity with respect to [%] ECHCG [9] | Herbicidal activity with respect to [%] AMARE [10] | Herbicidal activity with respect to [%] VIOTR (VIOTR: Viola tricolor) |
| --- | --- | --- | --- | --- | --- | --- | --- | --- | --- | --- | --- | --- |
| Nc1nc(NC2CCCc3cc(F)ccc32)nnc1C(F)(F)F (racemic) [Example 1.46] | 100% | 80% | 100% | 100% | 90% | 100% | 100% | 100% | 90% | 100% | – | – |
| N#Cc1nnc(NC2CCOc3ccccc32)nc1N (racemic) [Example 1.60] | 90% | 100% | 100% | – | – | 100% | – | – | – | – | 80% | – |
| N#Cc1nnc(NC2CCOc3ccc(F)cc32)nc1N (racemic) [Example 1.64] | 90% | 100% | 100% | 90% | – | 100% | 100% | 100% | – | 100% | 100% | 80% |
| CC(=O)c1nnc(N[C@@H]2CCc3ccccc32)nc1N [Example 1.29, 1-[5-Amino-3-[(1R)-2,3-dihydro-1H-inden-1-ylamino]-1,2,4-triazin-6-yl]ethanone] | 90% | – | 90% | 100% | – | 90% | – | 80% | – | – | – | 80% |
| Cc1ccc2c(c1)[C@H](Nc1nnc(C(F)(F)F)c(N)n1)CC2 [Example 1.31] | 90% | – | 100% | 100% | 100% | 100% | 100% | 100% | 100% | 100% | – | – |
| CCOC(=O)c1nnc(N[C@@H]2CCCc3ccccc32)nc1N [Example 1.32, Ethyl 5-amino-3-[(1R)-1,2,3,4-tetrahydronaphthalen-1-ylamino]-1,2,4-triazine-6-carboxylate] | 80% | 80% | 100% | 100% | – | 100% | 90% | – | – | 100% | 80% | – |
| Cc1ccc2c(c1)[C@H](Nc1nnc(C(=O)NC(C)C)c(N)n1)[C@@H](C)C2 [Example 1.39] | 80% | 100% | 100% | 100% | 80% | 100% | 100% | 80% | – | 90% | – | 90% |
| Nc1nc(N[C@@H]2CCc3ccccc32)nnc1Cl [Example 1.59] | 100% | 80% | 100% | – | – | 100% | 80% | 80% | 90% | 80% | – | – |
| CCOC(=O)c1nnc(N[C@@H]2CCc3ccc(C)cc32)nc1N [Example 1.74] | 100% | – | – | 100% | 80% | – | 100% | 100% | – | 100% | – | – |
| C=C(c1nnc(N[C@H]2c3cc(C)ccc3C[C@@H]2C)nc1N)C(F)(F)F [Example 1.81] | – | – | 100% | 100% | – | 100% | – | 100% | – | 100% | – | 80% |
| Nc1nc(NC2c3ccccc3CC2O)nnc1C(F)(F)F (stereo not drawn) [Example 1.82] | – | – | – | 100% | – | – | 100% | 100% | – | – | – | – |
| Cc1ccc2c(c1)[C@H](Nc1nnc(C(C)O)c(N)n1)[C@@H](C)C2 (stereo partly drawn) [Example 1.103] | 80% | 90% | 100% | 100% | – | 100% | – | 100% | – | 100% | – | 90% |
| Cc1ccc2c(c1)[C@H](Nc1nnc(C(C)(C)O)c(N)n1)[C@@H](C)C2 [Example 1.105] | – | 80% | 100% | 100% | – | 100% | – | 100% | – | 100% | – | 90% |
